These are literature values, as cited in paper PMC10339703 (Clinical and Translational Science, 2023).

In data set [1] the test system is patients with IPF. As to conditions: commonly reported adverse effects; cited from earlier work.
The test system of data set [2] is patients with IPF. As to conditions: most common side effects; cited from earlier work.

Each structure is given as a SMILES string.

Turning to `COC(=O)c1ccc2c(c1)NC(=O)/C2=C(\Nc1ccc(N(C)C(=O)CN2CCN(C)CC2)cc1)c1ccccc1` [Nintedanib], in the data set on patients with IPF [1], the “diarrhea, incidence” value is 62% and the “elevation in liver function tests, incidence” value was 14%. For `Cc1ccc(=O)n(-c2ccccc2)c1` [Pirfenidone], the “rash, incidence” value with patients with IPF [2] is 30%.
